In patent EP3789378A1, “PIPERIDINES OR PIPERIDONES SUBSTITUTED WITH UREA AND HETEROARYL” (Grünenthal GmbH, priority 2019, dated 2021) one finds EC50 and activation data, which are given here for 22 compounds.

For one test, the target named is T1, h FPR2 (Homo sapiens, UniProt P25090).
T1 construct: expressed in transfected cells
T1 sequence (P25090 1-351): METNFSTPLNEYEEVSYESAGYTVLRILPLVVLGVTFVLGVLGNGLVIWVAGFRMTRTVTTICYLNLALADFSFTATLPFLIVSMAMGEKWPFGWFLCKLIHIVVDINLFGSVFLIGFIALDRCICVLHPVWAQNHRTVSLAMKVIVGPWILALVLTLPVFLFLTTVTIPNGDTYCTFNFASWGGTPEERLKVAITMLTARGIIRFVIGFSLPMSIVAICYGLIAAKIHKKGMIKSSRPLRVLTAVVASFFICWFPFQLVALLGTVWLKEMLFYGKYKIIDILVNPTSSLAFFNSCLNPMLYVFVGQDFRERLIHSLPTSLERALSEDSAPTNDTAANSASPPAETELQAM
The test can be described thus: Agonistic activity in hFPR2-Aq-CHO cells (FLIPR Calcium 5 fluorescence assay). To be noted: 11 point half log dilution, final assay concentration from 10µM. The class given is cell-based. Summed up: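 hFPR2-Aq-CHO cells were loaded with Calcium 5 dye for 30 min at 37 °C and equilibrated 10 min at room temperature. Compound (11 points, 10 µM to 100 pM final) was added in HBSS/HEPES/probenecid buffer pH 7.4. Fluorescence rise over basal across 5 min, relative to no-compound wells, gave EC50.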
For the compound `O=C(Nc1ccc(Cl)cc1)N[C@@H]1CCN(C(=O)C2CCC(O)CC2)C[C@H]1c1ccc(Cl)s1` (relative stereo) [Ex-132, trans-1-(4-Chlorophenyl)-3-[3-(5-chloro-thiophen-2-yl)-1-(4-hydroxy-cyclohexanecarbonyl)-piperidin-4-yl]-urea], the concentration giving a half-maximal response (EC50) came out at 39 nM.

Consider `COc1ccc([C@@H]2CN(CC3(C#N)CC3)CC[C@H]2NC(=O)Nc2ccc(Cl)cc2)nc1` (relative stereo) [Ex-155, trans-1-(4-Chlorophenyl)-3-[1-[(1-cyano-cyclopropyl)-methyl]-3-(5-methoxy-pyridin-2-yl)-piperidin-4-yl]-urea], for which the EC50 worked out at 0.09 nM.

Turning to `COc1ccc([C@@H]2CN(CC3CC(OC)C3)CC[C@H]2NC(=O)Nc2ccc(Cl)cc2)nc1` (single isomer, unassigned) [Ex-202, trans-1-(4-chloro-phenyl)-3-[5-methoxy-1'-(3-methoxy-cyclobutylmethyl)-1',2',3',4',5',6'-hexahydro-[2,3']bipyridinyl-4'-yl]-urea], the EC50 turned out to be 1.4 nM.

As to `COc1ccc([C@@H]2CN(C(=O)C3CCN(C)CC3)CC[C@H]2NC(=O)Nc2ccc(Cl)cc2)nc1` (single isomer, unassigned) [Ex-187, trans-1-(4-chlorophenyl)-3-[3-(5-methoxypyridin-2-yl)-1-(1-methylpiperidine-4-carbonyl)piperidin-4-yl]urea], the EC50 stood at 1.4 nM.

`COc1cnc([C@@H]2CN(CC3CC3)CC[C@H]2NC(=O)Nc2ccc(Cl)cc2)c(F)c1` (relative stereo) [Ex-209, trans-1-(4-chloro-phenyl)-3-(1'-cyclopropylmethyl-3-fluoro-5-methoxy-1',2',3',4',5',6'-hexahydro-[2,3']bipyridinyl-4'-yl)-urea]: the EC50 was found to be 0.3 nM.

Take `COc1ccc([C@@H]2CN(C)CC[C@H]2NC(=O)Nc2ccc(Cl)cc2)nc1` (relative stereo) [Ex-126, trans-1-(4-Chlorophenyl)-3-[3-(5-methoxy-pyridin-2-yl)-1-methyl-piperidin-4-yl]-urea]: the EC50 worked out at 1.2 nM.

In the case of `COc1ccc([C@@H]2CN(CCO)CC[C@H]2NC(=O)Nc2ccccc2)nc1` (relative stereo) [Ex-164, trans-1-[1-(2-Hydroxy-ethyl)-3-(5-methoxy-pyridin-2-yl)-piperidin-4-yl]-3-phenyl-urea], the EC50 was 56 nM.

As to `COc1ccc([C@@H]2CN(C(=O)c3ccc(C(F)(F)F)nc3)CC[C@H]2NC(=O)Nc2ccc(Cl)cc2)nc1` (single isomer, unassigned) [Ex-100, trans-1-(4-chlorophenyl)-3-[3-(5-methoxypyridin-2-yl)-1-{[6-(trifluoromethyl)pyridin-3-yl]carbonyl}piperidin-4-yl]urea], the EC50 came out at 93 nM.

Turning to `Cc1cc(NC(=O)N[C@@H]2CCN(c3ccc(F)cc3)C[C@H]2c2ccc(Cl)cn2)sn1` (relative stereo) [Ex-26, trans-1-[5-chloro-1'-(4-fluoro-phenyl)-1',2',3',4',5',6'-hexahydro-[2,3']bipyridinyl-4'-yl]-3-(3-methyl-isothiazol-5-yl)-urea], the EC50 amounted to 1 nM.

For the compound `COc1ccc([C@@H]2CN(CC3CC(O)C3)CC[C@H]2NC(=O)Nc2ccc(Cl)cc2)nc1` (single isomer, unassigned) [Ex-203, trans-1-(4-chloro-phenyl)-3-[1'-(3-hydroxy-cyclobutylmethyl)-5-methoxy-1',2',3',4',5',6'-hexahydro-[2,3']bipyridinyl-4'-yl]-urea], the EC50 amounted to 0.7 nM.

`COc1ccc([C@@H]2CN(C(=O)c3ccc(C)nc3)CC[C@H]2NC(=O)Nc2ccc(C#N)cc2)nc1` (relative stereo) [Ex-128, trans-1-(4-Cyano-phenyl)-3-[3-(5-methoxy-pyridin-2-yl)-1-(6-methyl-pyridine-3-carbonyl)-piperidin-4-yl]-urea]: the EC50 was determined as 5 nM.

Regarding `O=C(Nc1ccc(Cl)cc1)NC1CC(=O)N(c2ccc(F)cc2)CC1c1ccc(Cl)cn1` (single isomer, unassigned) [Ex-15, 1-(4-chlorophenyl)-3-[5-(5-chloropyridin-2-yl)-1-(4-fluorophenyl)-2-oxopiperidin-4-yl]urea], the EC50 is 7 nM.

With `COc1ccc([C@@H]2CN(CCC(C)(C)C#N)CC[C@H]2NC(=O)Nc2ccc(Cl)cc2)nc1` (relative stereo) [Ex-144, trans-1-(4-Chlorophenyl)-3-[1-(3-cyano-3-methyl-butyl)-3-(5-methoxy-pyridin-2-yl)-piperidin-4-yl]-urea], the EC50 turned out to be 1 nM.

Regarding `COc1ccc([C@@H]2CN(CC3COC3)CC[C@H]2NC(=O)Nc2cc(C)ns2)nc1` (relative stereo) [Ex-204, trans-1-(5-methoxy-1'-oxetan-3-ylmethyl-1',2',3',4',5',6'-hexahydro-[2,3']bipyridinyl-4'-yl)-3-(3-methyl-isothiazol-5-yl)-urea], the EC50 turned out to be 4 nM.

For the compound `Cc1ccc(CN2CC[C@@H](NC(=O)Nc3ccc(Cl)cc3)[C@H](c3ccc(Cl)s3)C2)cn1` (relative stereo) [Ex-87, trans-1-(4-chlorophenyl)-3-[3-(5-chlorothiophen-2-yl)-1-[(6-methylpyridin-3-yl)methyl]piperidin-4-yl]urea], the EC50 came out at 1 nM.

In the case of `COc1ccc([C@@H]2CN(c3ccc(F)cc3)CC[C@H]2NC(=O)Nc2cc(C)ns2)cn1` (relative stereo) [Ex-3, trans-1-[1-(4-fluoro-phenyl)-6'-methoxy-1,2,3,4,5,6-hexahydro-[3,3']bipyridinyl-4-yl]-3-(3-methyl-isothiazol-5-yl)-urea], the EC50 was found to be 10 nM.

In the case of `COc1ccc([C@@H]2CN(c3cncc(C)n3)CC[C@H]2NC(=O)Nc2ccc(Cl)cc2)nc1` (relative stereo) [Ex-224, trans-1-(4-chloro-phenyl)-3-[5-methoxy-1'-(6-methyl-pyrazin-2-yl)-1',2',3',4',5',6'-hexahydro-[2,3']bipyridinyl-4'-yl]-urea], the EC50 came to 5 nM.

`COc1ccc([C@@H]2CN(c3ccncn3)CC[C@H]2NC(=O)Nc2ccc(Cl)cc2)cn1` (relative stereo) [Ex-1, trans-1-(4-chloro-phenyl)-3-(6'-methoxy-1-pyrimidin-4-yl-1,2,3,4,5,6-hexahydro-[3,3']bipyridinyl-4-yl)-urea]: the EC50 was determined as 6 nM.

Regarding `O=C(Nc1ccc(Cl)cc1)N[C@@H]1CCN(Cc2ncccn2)C[C@H]1c1ccc(Cl)s1` (single isomer, unassigned) [Ex-46, trans-1-(4-chlorophenyl)-3-[3-(5-chlorothiophen-2-yl)-1-(pyrimidin-2-ylmethyl)piperidin-4-yl]urea], the EC50 was found to be 0.4 nM.

With `COc1ccc([C@@H]2CN(CCN(C)C)CC[C@H]2NC(=O)Nc2ccc(Cl)cc2)nc1` (relative stereo) [Ex-136, trans-1-(4-Chlorophenyl)-3-[1-[2-(dimethylamino)ethyl]-3-(5-methoxy-pyridin-2-yl)-piperidin-4-yl]-urea], the EC50 was determined as 1.4 nM.

`COc1ccc([C@@H]2CN(CC3COC3)CC[C@H]2NC(=O)Nc2ccccc2)nc1` (relative stereo) [Ex-161, trans-1-[3-(5-Methoxy-pyridin-2-yl)-1-(oxetan-3-yl-methyl)-piperidin-4-yl]-3-phenyl-urea]: the EC50 amounted to 28 nM.

Staying with this test, now noted: agonistic response at 0.1µM.
Consider `COc1ccc([C@@H]2CN(CC(F)F)CC[C@H]2NC(=O)Nc2ccc(C#N)cc2)nc1` (relative stereo) [Ex-175, trans-1-(4-Cyano-phenyl)-3-[1-(2,2-difluoro-ethyl)-3-(5-methoxy-pyridin-2-yl)-piperidin-4-yl]-urea], for which the activation at 0.1 µM was determined as 17%.

Broadly, the EC50 is the midpoint of the concentration-response curve.
